The results in this text go back to PubChem BioAssay (NCI).

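Cells were grown in 96-well plates and exposed to each compound for 48 hours at five concentrations; endpoints were interpolated linearly between bracketing concentrations, or set to the highest concentration if not reached. GI50 = concentration required for 50% inhibition of growth. TGI marks complete inhibition of growth.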

Some test systems named below: HS 578T breast; HCT-116 colon; SF-539 CNS; PC-3 prostate; SK-MEL-28 melanoma; SK-MEL-5 melanoma; NCI-H23 lung; SK-MEL-2 melanoma; MALME-3M melanoma; SR leukemia.
Common to all, as to test: NCI anticancer screen, dose series, 48 h

For `Clc1ccc2c(NCCNc3nc(N4CCCCC4)nc4ccccc34)ccnc2c1`, the GI50 in the assay with HS 578T breast was 3.04 µM; in the assay with HCT-116 colon, 0.441 µM; in the assay with SF-539 CNS, 1.72 µM; in the assay with PC-3 prostate it was 3.17 µM; in the assay with SK-MEL-28 melanoma it was 1.86 µM; with SK-MEL-5 melanoma it was 1.86 µM. In addition, the GI50 was 4.07 µM with NCI-H23 lung, 1.79 µM in the assay on SK-MEL-2 melanoma, 2.05 µM with MALME-3M melanoma and 1.23 µM with SR leukemia. Also, the TGI in the assay on HS 578T breast worked out at 8.39 µM; with HCT-116 colon, 1.63 µM; with SF-539 CNS, 3.42 µM; with PC-3 prostate it was 14.4 µM; in the assay with SK-MEL-28 melanoma, 3.52 µM; with SK-MEL-5 melanoma, 3.31 µM. The TGI came to 18.4 µM in the assay on NCI-H23 lung, 3.83 µM in the assay with SK-MEL-2 melanoma, 4.05 µM with MALME-3M melanoma and 4.53 µM in the assay with SR leukemia.
As to `COc1ccc(/C=N/C2=NNC(C)(c3ccccc3O)N2C(Cc2c[nH]c3ccccc23)C(=O)O)cc1` (stereo not given), the GI50 with HS 578T breast is 2.83 µM; in the assay with HCT-116 colon, 2.52 µM; in the assay with SF-539 CNS, 2.75 µM; with PC-3 prostate it was 2.68 µM; in the assay with SK-MEL-28 melanoma, 2.67 µM; with SK-MEL-5 melanoma, 1.66 µM. For the same compound, the GI50 in the assay with NCI-H23 lung was 2.28 µM; in the assay with SK-MEL-2 melanoma it was 2.27 µM; in the assay on MALME-3M melanoma it was 1.9 µM; in the assay with SR leukemia it was 2.76 µM. Further, the TGI came to 21.7 µM with HS 578T breast; 10.2 µM in the assay on HCT-116 colon; 10.3 µM in the assay on SF-539 CNS; 11.6 µM in the assay with PC-3 prostate; 8.41 µM in the assay on SK-MEL-28 melanoma; 3.09 µM with SK-MEL-5 melanoma. The TGI with NCI-H23 lung stood at 8.61 µM; with SK-MEL-2 melanoma, 5.81 µM; with MALME-3M melanoma it was 6.49 µM; in the assay with SR leukemia it was 12.4 µM.
As to `Nc1n[nH]c2cc(F)c([C@@H]3Nc4c(F)cc5[nH]ncc5c4[C@H]4C5CCC(C5)[C@@H]34)cc12` (stereo not given in full), the GI50 was 0.117 µM in the assay with HS 578T breast; 0.118 µM in the assay with HCT-116 colon; 0.0792 µM in the assay with SF-539 CNS; 0.149 µM with PC-3 prostate; 3.75 µM in the assay on SK-MEL-28 melanoma; 0.114 µM in the assay with SK-MEL-5 melanoma. The GI50 is 0.158 µM in the assay with NCI-H23 lung, 0.817 µM in the assay on SK-MEL-2 melanoma, 0.948 µM in the assay with MALME-3M melanoma and 0.115 µM in the assay on SR leukemia. Besides, the TGI in the assay with HS 578T breast was found to be 2.95 µM; in the assay on HCT-116 colon, 1.56 µM; in the assay with SF-539 CNS, 0.23 µM; in the assay on PC-3 prostate, 8.04 µM; in the assay with SK-MEL-28 melanoma, 13.4 µM; in the assay on SK-MEL-5 melanoma, 0.538 µM. In addition, the TGI in the assay on NCI-H23 lung turned out to be 5.76 µM; in the assay on SK-MEL-2 melanoma, 9.37 µM; in the assay on MALME-3M melanoma, 14.3 µM; with SR leukemia, 11.1 µM.
For the compound `C#CCn1c2c(c3ccccc3c1=O)C(=O)c1ccccc1-2`, the TGI is 34.8 µM in the assay on HS 578T breast; over 100 µM in the assay on HCT-116 colon; 24.2 µM with SF-539 CNS; over 100 µM in the assay with PC-3 prostate; over 100 µM in the assay with SK-MEL-28 melanoma; 22.1 µM in the assay with SK-MEL-5 melanoma. The TGI in the assay on NCI-H23 lung is 40.4 µM; with SK-MEL-2 melanoma it was over 100 µM; in the assay on MALME-3M melanoma, over 100 µM; with SR leukemia it was over 100 µM.
Turning to `COc1cc(NC(=O)c2cc3ccccc3cc2O)c(OC)cc1Cl`, the GI50 with HS 578T breast is 2.11 µM; with HCT-116 colon, 2.48 µM; in the assay with SF-539 CNS, 2.31 µM; in the assay with PC-3 prostate, 1.56 µM; in the assay on SK-MEL-28 melanoma, 2.86 µM; with SK-MEL-5 melanoma it was 1.38 µM. Besides, the GI50 in the assay on NCI-H23 lung is 1.59 µM; in the assay with SK-MEL-2 melanoma, 2.74 µM; in the assay on MALME-3M melanoma it was 0.335 µM; in the assay on SR leukemia it was 2.02 µM. The TGI amounted to 8.85 µM in the assay with HS 578T breast; 11.1 µM in the assay on HCT-116 colon; 7.15 µM in the assay on SF-539 CNS; 4.46 µM in the assay with PC-3 prostate; 10.7 µM in the assay on SK-MEL-28 melanoma; 2.93 µM in the assay with SK-MEL-5 melanoma. Also, the TGI in the assay on NCI-H23 lung was determined as 7.05 µM; in the assay with SK-MEL-2 melanoma it was 6.95 µM; in the assay on MALME-3M melanoma, 2.87 µM; in the assay with SR leukemia, 14.7 µM.
